Assay [1] can be described thus: Relief of inflammation on administration. It is filed as in vivo. Particulars: administration of the peptide.
In assay [2] the test system is ACTH and β-endorphin secretion. The note with it: background statements; in vitro and in vivo or iv; cited from earlier work.
The conditions of assay [3]: background statements; injected peripherally or iv, mammals; cited from earlier work.
The conditions of assay [4]: background statement; cited from earlier work.
The subject of assay [5] is ACTH and β-END-LI secretion. As to the kind of experiment: Secretion of ACTH and β-END-LI on administration of the peptide (in vivo testing). As for the experimental part:
The cyclic CRF agonists are examined for their effects on the secretion of ACTH and β-endorphin in vitro and also in vivo. […] In vivo testing is carried out using the general procedure set forth in C. Rivier et al., Science, 218, 377 (1982).

Assay [6] can be described thus: Lowering of blood pressure on peripheral or iv administration. The note with it: iv injection / administered intravenously. The format is in vivo.

Bridge positions count the residues as written; N and C are the ends. Square brackets hold non-standard residues; d marks the D form. Peptide text beside a SMILES is read from it. Nle = CCCC[C@H](N)C(=O)O

In the case of `CCCC[C@H](NC(=O)[C@H](CCC(=O)O)NC(=O)[C@@H](NC(=O)[C@H](CCCC)NC(=O)[C@H](CC(N)=O)NC(=O)[C@H](CCCNC(=N)N)NC(=O)[C@H](CC(C)C)NC(=O)[C@H](CC(C)C)NC(=O)[C@H](Cc1c[nH]cn1)NC(=O)[C@@H](Cc1ccccc1)NC(=O)[C@@H](NC(=O)[C@H](CC(C)C)NC(=O)[C@H](CC(=O)O)NC(=O)[C@@H](NC(=O)[C@H](CO)NC(=O)[C@@H](NC(=O)[C@H]1CCCN1C(=O)[C@@H]1CCCN1C(C)=O)[C@@H](C)CC)[C@@H](C)CC)[C@@H](C)O)[C@@H](C)CC)C(=O)N[C@@H](C)C(=O)N[C@@H](CCCNC(=N)N)C(=O)N[C@@H](CC(N)=O)C(=O)N[C@@H](CCC(=O)O)C(=O)N[C@@H](CC(N)=O)C(=O)N[C@@H](CCC(N)=O)C(=O)N[C@@H](CCCNC(=N)N)C(=O)N[C@@H](CCC(=O)O)C(=O)N[C@H]1CCC(=O)NCCCC[C@@H](C(=O)N[C@@H](CC(N)=O)C(=O)N[C@@H](CCCNC(=N)N)C(=O)N[C@@H](CCCCN)C(=O)N[C@@H](Cc2ccc(O)cc2)C(=O)N[C@@H](CC(C)C)C(=O)N[C@@H](CC(=O)O)C(=O)N[C@@H](CCC(=O)O)C(=O)N[C@H](C(N)=O)C(C)C)NC(=O)[C@@H](Cc2c[nH]cn2)NC(=O)[C@H](C)NC1=O` [Example 8 A, (cyclo 30-33)[Ac-Pro^4, D-Pro^5, D-Phe^12, Nle^18,21, Glu^30, D-His^32, Lys^33]-Carp Urotensin I(4-41)] (Ac-P[dP]ISIDLT[dF]HLLRN[Nle]IE[Nle]ARNENQREEA[dH]KNRKYLDEV-NH2; lactam 27-30), the “relief of inflammation, in words” value in assay [1] is given as “relieves inflammation”.

With `CCCC[C@H](NC(=O)[C@H](CCCCN)NC(=O)[C@H](CCCNC(=N)N)NC(=O)[C@H](CC(C)C)NC(=O)[C@H](CC(C)C)NC(=O)[C@H](CCC(=O)O)NC(=O)[C@@H](CC(C)C)NC(=O)[C@H](CO)NC(=O)[C@H](CC(C)C)NC(=O)[C@H](CC(=O)O)NC(=O)[C@@H](NC(=O)[C@H](CO)NC(=O)[C@@H](NC(=O)[C@H]1CCCN1C(=O)[C@@H]1CCCN1C(C)=O)[C@@H](C)CC)[C@@H](C)CC)C(=O)N[C@H](C(=O)N[C@@H](CCC(=O)O)C(=O)N[C@H](C(=O)N[C@@H](CCC(=O)O)C(=O)N[C@@H](CCCCN)C(=O)N[C@@H](CCC(N)=O)C(=O)N[C@@H](CCC(=O)O)C(=O)N[C@@H](CCCCN)C(=O)N[C@@H](CCC(=O)O)C(=O)N[C@@H](CCCCN)C(=O)N[C@@H](CCC(N)=O)C(=O)N[C@H]1CCC(=O)NCCCC[C@@H](C(=O)N[C@@H](CC(N)=O)C(=O)N[C@@H](CCCNC(=N)N)C(=O)N[C@@H](CC(C)C)C(=O)N[C@@H](CC(C)C)C(=O)N[C@@H](CC(C)C)C(=O)N[C@@H](CC(=O)O)C(=O)N[C@H](C(=O)N[C@H](C(N)=O)[C@@H](C)CC)[C@@H](C)O)NC(=O)[C@@H](Cc2c[nH]cn2)NC(=O)[C@H](C)NC1=O)[C@@H](C)CC)[C@@H](C)CC` [Example 8 B, (cyclo 29-32)[Ac-Pro^3, D-Pro^4, D-Leu^11, Nle^17, Glu^29, D-His^31, Lys^32]-sauvagine(3-40)] (Ac-P[dP]ISIDLS[dL]ELLRK[Nle]IEIEKQEKEKQEA[dH]KNRLLLDTI-NH2; lactam 27-30), the “relief of inflammation, in words” value in assay [1] was “relieves inflammation”.

With `CCCC[C@H](NC(=O)[C@H](CCC(=O)O)NC(=O)[C@H](CC(C)C)NC(=O)[C@H](CCCC)NC(=O)[C@H](CCC(=O)O)NC(=O)[C@H](CCCNC(=N)N)NC(=O)[C@H](CC(C)C)NC(=O)[C@H](CC(C)C)NC(=O)[C@H](Cc1c[nH]cn1)NC(=O)[C@@H](Cc1ccccc1)NC(=O)[C@@H](NC(=O)[C@H](CC(C)C)NC(=O)[C@H](CC(=O)O)NC(=O)[C@H](CC(C)C)NC(=O)[C@H](CO)NC(=O)[C@@H](NC(=O)[C@H]1CCCN1C(=O)[C@@H]1CCCN1C(C)=O)[C@@H](C)CC)[C@@H](C)O)C(=O)N[C@@H](C)C(=O)N[C@@H](CCCCN)C(=O)N[C@@H](C)C(=O)N[C@@H](CCC(=O)O)C(=O)N[C@@H](CCC(N)=O)C(=O)N[C@@H](CCC(=O)O)C(=O)N[C@@H](C)C(=O)N[C@@H](CCC(=O)O)C(=O)N[C@H]1CCC(=O)NCCCC[C@@H](C(=O)N[C@@H](CC(N)=O)C(=O)N[C@@H](CCCNC(=N)N)C(=O)N[C@@H](CC(C)C)C(=O)N[C@@H](CC(C)C)C(=O)N[C@@H](CC(C)C)C(=O)N[C@@H](CCC(=O)O)C(=O)N[C@@H](CCC(=O)O)C(=O)N[C@@H](C)C(N)=O)NC(=O)[C@@H](Cc2c[nH]cn2)NC(=O)[C@H](C)NC1=O` [Example 8 C, (cyclo 30-33)[Ac-Pro^4, D-Pro^5, D-Phe^12, Nle^18,21, Glu^30, D-His^32, Lys^33]-α-helical CRF(4-41)] (Ac-P[dP]ISLDLT[dF]HLLRE[Nle]LE[Nle]AKAEQEAEEA[dH]KNRLLLEEA-NH2; lactam 27-30), the “relief of inflammation, in words” value in assay [1] is listed as “relieves inflammation”.

As for `CCCC[C@H](NC(=O)[C@H](CCC(=O)O)NC(=O)[C@@H](NC(=O)[C@H](CCCC)NC(=O)[C@H](CC(N)=O)NC(=O)[C@H](CCCNC(=N)N)NC(=O)[C@H](CC(C)C)NC(=O)[C@H](CC(C)C)NC(=O)[C@H](Cc1c[nH]cn1)NC(=O)[C@@H](Cc1ccccc1)NC(=O)[C@@H](NC(=O)[C@H](CC(C)C)NC(=O)[C@H](CC(=O)O)NC(=O)[C@@H](NC(=O)[C@H](CO)NC(=O)[C@@H](NC(=O)[C@H]1CCCN1C(=O)[C@@H]1CCCN1C(C)=O)[C@@H](C)CC)[C@@H](C)CC)[C@@H](C)O)[C@@H](C)CC)C(=O)N[C@@H](C)C(=O)N[C@@H](CCCNC(=N)N)C(=O)N[C@H](C(=O)N[C@@H](CCC(=O)O)C(=O)N[C@@H](CC(N)=O)C(=O)N[C@@H](CCC(=O)O)C(=O)N[C@@H](CCCNC(=N)N)C(=O)N[C@@H](CCC(=O)O)C(=O)N[C@H]1CCC(=O)NCCCC[C@@H](C(=O)N[C@@H](CC(N)=O)C(=O)N[C@@H](CCCNC(=N)N)C(=O)N[C@@H](CCCCN)C(=O)N[C@@H](Cc2ccc(O)cc2)C(=O)N[C@@H](CC(C)C)C(=O)N[C@@H](CC(=O)O)C(=O)N[C@@H](CCC(=O)O)C(=O)N[C@H](C(N)=O)C(C)C)NC(=O)[C@@H](Cc2c[nH]cn2)NC(=O)[C@H](C)NC1=O)[C@@H](C)CC` [Example 8 E, (cyclo 30-33)[Ac-Pro^4, D-Pro^5, D-Phe^12, Nle^18,21, Glu^30, D-His^32, Lys^33]-sucker urotensin(4-41)] (Ac-P[dP]ISIDLT[dF]HLLRN[Nle]IE[Nle]ARIENEREEA[dH]KNRKYLDEV-NH2; lactam 27-30), the “relief of inflammation, in words” value in assay [1] is listed as “relieves inflammation”. Consider `CC[C@H](C)[C@H](NC(=O)[C@@H](NC(=O)[C@H](CC(=O)O)NC(=O)[C@H](CC(C)C)NC(=O)[C@H](CC(C)C)NC(=O)[C@H](CC(C)C)NC(=O)[C@H](CCCNC(=N)N)NC(=O)[C@H](CC(N)=O)NC(=O)[C@H](CC(N)=O)NC(=O)[C@H](C)NC(=O)[C@H](C)NC(=O)[C@H](CCC(N)=O)NC(=O)[C@H](CCC(N)=O)NC(=O)[C@H](CCCCN)NC(=O)[C@H](CCC(=O)O)NC(=O)[C@H](CCCCN)NC(=O)[C@H](CCC(=O)O)NC(=O)[C@H](CCC(N)=O)NC(=O)[C@H](CCCCN)NC(=O)[C@H](CCC(=O)O)NC(=O)[C@@H](NC(=O)[C@H](CCC(=O)O)NC(=O)[C@@H](NC(=O)[C@H](CCSC)NC(=O)[C@H](CCCCN)NC(=O)[C@H](CCCNC(=N)N)NC(=O)[C@H](CC(C)C)NC(=O)[C@H](CC(C)C)NC(=O)[C@H](CCC(=O)O)NC(=O)[C@H](CC(C)C)NC(=O)[C@H](CO)NC(=O)[C@H](CC(C)C)NC(=O)[C@H](CC(=O)O)NC(=O)[C@@H](NC(=O)[C@H](CO)NC(=O)[C@@H](NC(=O)[C@@H]1CCCN1C(=O)[C@@H]1CCCN1C(=O)CNC(=O)[C@@H]1CCC(=O)N1)[C@@H](C)CC)[C@@H](C)CC)[C@@H](C)CC)[C@@H](C)CC)[C@@H](C)O)C(N)=O` [sauvagine], for which, in assay [2], the “stimulation of ACTH and β-endorphin secretion / activities, in words” value is “stimulate the secretion of ACTH and β-endorphin”. Besides, the “lowering of blood pressure, in words” value in assay [3] was “lower blood pressure”. For the same compound, in assay [4], the “gastric acid production, in words” value is on record as “inhibit gastric acid production”.

Take “(cyclo 30-33)[Ac-Pro^4, D-Phe^12, CML^17, Nle^21,38, Glu^30, D-His^32, Lys^33 ]-r/hCRF (4-41) [Example 9 E]”: in assay [5], the “stimulation of secretion of ACTH and β-END-LI on administration of the peptide, in words” value (from here on “stimulation of secretion … in words”) is “stimulates the secretion of ACTH and β-END-LI”. In addition, the “lowering of blood pressure on iv injection, in words” value (“lowering … on iv injection, in words” below) in assay [6] was “lowers blood pressure”.

Regarding “(cyclo 30-33)[Ac-Pro^4, D-Phe^12, CML^19, Nle^21,38, Glu^30, D-His^32, Lys^33 ]-r/hCRF (4-41) [Example 9 B]”, in assay [5], the “stimulation of secretion … in words” value was “stimulates the secretion of ACTH and β-END-LI”. Besides, the “lowering … on iv injection, in words” value in assay [6] was “lowers blood pressure”.

For the compound “(cyclo 30-33)[Ac-Pro^4, D-Phe^12, Nle^21,38, CML^27, Glu^30, D-His^32, Lys^33 ]-r/hCRF(4-41) [Example 9 C]”, the “stimulation of secretion … in words” value in assay [5] was “stimulates the secretion of ACTH and β-END-LI”. The “lowering … on iv injection, in words” value in assay [6] is recorded as “lowers blood pressure”. For the compound “(cyclo 30-33)[Ac-Pro^4, D-Phe^12, Nle^21,38, Glu^30, D-His^32, Lys^33, CML^37 ]-r/hCRF(4-41) [Example 9 D]”, the “stimulation of secretion … in words” value in assay [5] is “stimulates the secretion of ACTH and β-END-LI”. Besides, in assay [6], the “lowering … on iv injection, in words” value is “lowers blood pressure”. As for “(cyclo 30-33)[Ac-Pro^4,D-Phe^12, Nle^21,38, Glu^30, D-Amp^32, Lys^33 ]-r/hCRF(4-41) [Example 6 D]”, in assay [5], the “stimulation of secretion … in words” value was “stimulates the secretion of ACTH and β-END-LI”. Further, in assay [6], the “lowering … on iv injection, in words” value was “lowers blood pressure”. In the case of “(cyclo 30-33)[Ac-Ser^7, D-Phe^12, CML^18,27, Nle^21,38, Glu^30, Lys^33 ]-r/hCRF(7-41) [Example 20 C]”, the “stimulation of secretion … in words” value in assay [5] is “stimulates the secretion of ACTH and β-END-LI”. In addition, the “lowering … on iv injection, in words” value in assay [6] is listed as “lowers blood pressure”.

The values are drawn from patent US5824771A, “Cyclic CRF agonists” (The Salk Institute for Biological Studies, priority 1997, dated 1998).
